Laboratory results taken from patent US9656963B2 (BRISTOL-MYERS SQUIBB COMPANY, priority 2012, dated 2017).

target: T1, hGPR40 (Homo sapiens, UniProt O14842); assay: FDSS-Based Intracellular Calcium Assay; assay type: cell-based; conditions: cells expressing GPR40, intracellular Ca2+ response
T1 construct: 3x FLAG; expressed in transfected cells
In short: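 Flag-tagged GPR40-expressing cells plated overnight in serum-free, phenol red-free DMEM. Compounds added from DMSO stocks, diluted in assay buffer and added as 3x solution. Intracellular Ca^2+ flux read by fluorescence on an FDSS reader.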

T1 sequence (O14842 whole entry): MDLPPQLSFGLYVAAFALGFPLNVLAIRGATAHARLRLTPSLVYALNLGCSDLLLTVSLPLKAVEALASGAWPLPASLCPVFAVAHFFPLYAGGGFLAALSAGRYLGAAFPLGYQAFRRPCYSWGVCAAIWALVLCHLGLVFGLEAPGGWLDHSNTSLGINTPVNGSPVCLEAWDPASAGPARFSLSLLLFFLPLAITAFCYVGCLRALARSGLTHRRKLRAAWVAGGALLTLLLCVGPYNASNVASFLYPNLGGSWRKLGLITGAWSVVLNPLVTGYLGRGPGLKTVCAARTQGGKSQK

Row | SMILES | EC50
1 | COc1ccc(F)c(-c2ccc(Cc3ccc(N4N=C(C#N)C(C)C4CC(=O)O)cc3)c(C)c2)c1 (single isomer, unassigned) [Example 52, Isomer 2, 2-(3-cyano-1-(4-((2′-fluoro-5′-methoxy-3-methylbiphenyl-4-yl)methyl)phenyl)-4-methyl-4,5-dihydro-1H-pyrazol-5-yl)acetic acid] | 300 nM
2 | COc1ccc(F)c(-c2ccc(Cc3ccc(N4N=C(C(F)(F)F)CC4(C)CC(=O)O)cc3)c(C)c2)c1 (single isomer, unassigned) [Example 51, Isomer 1, 2-(1-(4-((2′-fluoro-5′-methoxy-3-methylbiphenyl-4-yl)methyl)phenyl)-5-methyl-3-(trifluoromethyl)-4,5-dihydro-1H-pyrazol-5-yl)acetic acid] | 1550 nM
3 | COc1ccc(F)c(-c2ccc(Cc3ccc(N4N=C(C(F)(F)F)C(C(C)C)C4CC(=O)O)cc3)c(C)c2)c1 (single isomer, unassigned) [Example 45, Isomer 1, 2-(1-(4-((2′-fluoro-5′-methoxy-3-methylbiphenyl-4-yl)methyl)phenyl)-4-isopropyl-3-(trifluoromethyl)-4,5-dihydro-1H-pyrazol-5-yl)acetic acid] | 3820 nM

Further lines, results first:

Row | EC50 | SMILES
4 | 37 nM | COc1cccc(-c2ccc(Cc3ccc(N4N=C(C(F)(F)F)[C@@H](C)[C@@H]4CC(=O)O)cc3)c(C)c2)c1 [Example 73]
5 | 15 nM | COc1ccc(F)c(-c2ccc(Cc3ccc(N4N=C(c5cccc(Cl)c5)[C@@H](C)[C@@H]4CC(=O)O)cc3)c(C)c2)c1 (single isomer, unassigned) [Example 68, isomer 1]
